Laboratory results as given in patent US4957926A, “Method of treating herpesviruses” (priority 1988, dated 1990).
“Also recorded” adds a separate entry of the source. Like-named read-outs stand apart in the source and are kept apart here.

How the values were obtained:
[1] = Fleet et al., compound No. 57 vs. No. 16; cited from earlier work
[2] = tested on: Cytomegalovirus (Viral Strain Towne); experiment: Cytomegalovirus Plaque Reduction Assay; assay type: cell-based
Description: (§1) For testing the N-Bu-DNJ against HSV, the HSV Type II strain HG52 described by Timbury, J. Gen. Virol. 13, 373-376 (1971), and Davis et al., Analyst 110, 605-609 (1985), is useful. For testing against CMV, the prototype CMV ADl69 strain described, for example, by Tyms et al., J. Gen. Virol. 68, 1563-1573 (1987), and in U.S. Pat. No. 4,743,560, is useful. Another useful CMV strain is the Towne strain described by Glazer et al., Ann. Inter. Med. 91, 676-683 (1979).
(§2) Human embryo fibroblast cells (HEF) were grown in Eagles minimal essential medium supplemented with 7% fetal calf serum (FCS), 9 mM sodium bicarbonate and 7 mM HEPES buffer. In maintenance medium the supplements were adjusted to 2% FCS, 13 mM sodium bicarbonate and 14 mM HEPES. CMV, strain Towne, and HSV type II, strain […], were used in the following tests. CMV virus stocks were prepared and stored by technique as previously described by Tyms & Williamson, Nature 297, 690-691 […]. Herpes virus stocks were prepared and stored by technique as previously described by Davis et al., Analyst 110, 605-609 (1985). The HEF were human embryonic lung fibroblasts, strain MRC-5, as described by Tyms and Williamson, Nature 297, 690-691 (1982).
(§3) For plaque reduction assays, 24-well culture trays were seeded with HEF cells. Confluent monolayers were infected with virus to give initially about 100 plaque-forming-units (p.f.u.) per well. After a one hour absorption period the inocula were replaced by l.5ml of a maintenance medium incorporating 0.5% low gelling temperature agarose, supplemented with various concentrations of test compound. For tests with CMV, infected monolayers were fixed with 5% formalin in phosphate buffered saline (PBS) at 6-8 days post-infection and stained with 0.3% methylene blue after removal of the overlay; whereas, tests with HSV were conducted in the same manner but with the monolayer fixing at 2 days post infection. The mean plaque number was calculated from a multiple series of counts (e.g., duplicate, triplicate or quadruplicate), converted to a percentage of untreated controls and values plotted against the log10 drug concentration. The 50% effective dose (ED50) was determined from best line fits for the curves.
In a similar manner, the Effective Dosage Values (ED50) were determined from the curves of FIG. 1. A least squares fit of the data of FIG. 1 to an equation of the form: y=mx+b gave the following values: […]
From these values, a 50% effective dose (ED50) was calculated to give the following values: […]

HEF cells (strain MRC-5) = experiment: HEF cell growth / monolayer appearance in HSV type II plaque reduction assay; assay type: cell-based, human; details: all concentrations (0.56-4.5 mM)
Description: as §3

[3] = tested on: Herpes Simplex Type II (Viral Strain HG52); experiment: Herpes Simplex Type II Plaque Reduction Assay; assay type: cell-based; details: for Plaque Count: replicate counts
Description: as §1, §2, §3
The mean plaque numbers determined on HEF cells exposed to varying amount of N-Bu-DNJ, N-Me-DNJ, N-He-DNJ, 2-deoxy-D-glucose and castanospermine were converted to percentage values (plaque count in presence of drug divided by mean value of untreated controls×100), and plotted as a function of drug concentration [drug (mM)].
The 50% effective dose (ED50)--that amount of drug needed to reduce plaque count by 50%--was calculated to give the following values: […]

[4] = tested on: Cytomegalovirus (Viral Strain Towne); experiment: Yield Reduction Assay against infections with CMV (Towne strain); assay type: cell-based; details: for Plaque Count (infectivity titre): 10^1 dil.; for activity at 500 µM / activity at 2000 µM: read-out: % Virus Control
Description: Antiviral activities of N-Bu-DNJ and comparative test compounds against infections with CMV (Towne strain) were also measured by the yield reduction assay as follows:
HEF cells (MRC-5) were infected at high multiplicity of infection (about one p.f.u. per cell) and incubated with various concentrations of the test compounds for 5 and 6 days post infection. The level of infectious virus shed into the extracellular fluid was determined at 5 and 6 days by plaque assays as described above, using serial dilution of extracellular fluid to bring readings on scale.
In Table VI, to calculate plaque-forming units (PFU) of the maintenance medium overlayering HEF cells, the plaque count at the most sensitive dilution (from Table V) was multiplied by dilution value and then by 5 (0.2 ml sample volumes used in test) to give PFU (per ml maintenance medium). (e.g. calculation of drug control: 31×10^3 ×5=1.6×10^5 PFU).

HSV type I = experiment: preliminary tests with a HSV type I strain which did not form multinucleated giant cells; assay type: cell-based; details: strain not forming giant cells
Description: The formation of multinucleated giant cells (syncytia), which result from the fusion of T4 cells with each other, is one of the most striking properties of HIV [Walker et al., Proc. Natl. Acad. Sci. USA 84, 8120-8124 (1987); Gruters et al., Nature 330, 74-77 (1987)]. Some, but not all, HSV strains also produce these multinucleated giant cells in vitro cell culture.

CCCCN1C[C@H](O)[C@@H](O)[C@H](O)[C@H]1CO [N-Bu-DNJ, Nbutyl deoxynojirimycin]
cytotoxicity relative to castanospermine (in words) [1]: substantially less cytotoxic
EC50 ([2]; Human betaherpesvirus 5, HEF, CMV, calculated from least squares fit of FIG. 1, read-out: 50% effective dose (ED50)): 570 µM
activity at 220 µM ([2]; Human betaherpesvirus 5, HEF, Table IV, 0.22 mM, read-out: % Virus control): 87%
activity at 450 µM ([2]; Human betaherpesvirus 5, HEF, Table IV, 0.45 mM, read-out: % Virus control): 52%
activity at 900 µM ([2]; Human betaherpesvirus 5, HEF, Table IV, 0.90 mM, read-out: % Virus control): 32%
activity at 1800 µM ([2]; Human betaherpesvirus 5, HEF, Table IV, 1.8 mM, read-out: % Virus control): 17%
Plaque Count Avg ([2]; Table IV, 0.22 mM): 153
Plaque Count ([2]; Table IV, 0.22 mM, replicate counts): 159,156,144,153
Plaque Count Avg ([2]; Table IV, 0.45 mM): 92
Plaque Count Avg ([2]; Table IV, 0.90 mM): 56
Plaque Count Avg ([2]; Table IV, 1.8 mM): 30
reduction of CMV infection of HEF cells (in words) ([2]; compared with castanospermine): reduces CMV infection of HEF cells at about the same dosage as does castanospermine
HEF cell growth (in words) (HEF cells (strain MRC-5)): grew normally
antiviral activity against HSV type II (in words) [3]: substantially reduce herpesvirus type II infection of HEF cells; also recorded: strong antiviral activity
EC50 ([3]; HEF, HSV type II, amount of drug needed to reduce plaque count by 50%, read-out: 50% effective dose (ED50)): 1200 µM
activity at 220 µM ([3]; HEF, Table I, 0.22 mM, read-out: % Virus Control): 85%
activity at 450 µM ([3]; HEF, Table I, 0.45 mM, read-out: % Virus Control): 60%
activity at 900 µM ([3]; HEF, Table I, 0.9 mM, read-out: % Virus Control): 37%
activity at 1800 µM ([3]; HEF, Table I, 1.8 mM, read-out: % Virus Control): 40%
activity at 3600 µM ([3]; HEF, Table I, 3.6 mM, read-out: % Virus Control): 7.7%
activity at 560 µM ([3]; HEF, Table III, 0.56 mM, read-out: % Virus Control): 56.9%
activity at 1120 µM ([3]; HEF, Table III, 1.12 mM, read-out: % Virus Control): 51%
activity at 2250 µM ([3]; HEF, Table III, 2.25 mM, read-out: % Virus Control): 27.5%
activity at 4500 µM ([3]; HEF, Table III, 4.5 mM, read-out: % Virus Control): 17.6%
Plaque Count Avg ([3]; Table I, 0.22 mM): 66
Plaque Count ([3]; Table I, 0.22 mM): 80,52
Plaque Count Avg ([3]; Table I, 0.45 mM): 47
Plaque Count ([3]; Table I, 0.45 mM): 42,53
Plaque Count Avg ([3]; Table I, 0.9 mM): 29
Plaque Count ([3]; Table I, 0.9 mM): 36,22
Plaque Count Avg ([3]; Table I, 1.8 mM): 31
Plaque Count ([3]; Table I, 1.8 mM): 41,20
Plaque Count Avg ([3]; Table I, 3.6 mM): 6
Plaque Count ([3]; Table I, 3.6 mM): 5,7
Plaque Count Avg ([3]; Table III, 0.56 mM): 29
Plaque Count Avg ([3]; Table III, 1.12 mM): 26
Plaque Count Avg ([3]; Table III, 2.25 mM): 14
Plaque Count Avg ([3]; Table III, 4.5 mM): 9
PFU ([4]; 0.5 mM, 5 days HEF growth): 8.5 × 10^5 PFU (per ml maintenance medium
Plaque Count (infectivity titre) ([4]; 0.5 mM, 5 days growth): ~ 200
PFU ([4]; 0.5 mM, 6 days HEF growth): 1.3 × 10^4 PFU (per ml maintenance medium
Plaque Count (infectivity titre) ([4]; 0.5 mM, 6 days growth): ~ 200
PFU ([4]; 2.0 mM, 5 days HEF growth): 1.4 × 10^3 PFU (per ml maintenance medium
PFU ([4]; 2.0 mM, 6 days HEF growth): 5.5 × 10^2 PFU (per ml maintenance medium
activity at 500 µM ([4]; Human betaherpesvirus 5, MRC5, 120 h, 0.5 mM, 5 days HEF growth): 5.3%
activity at 2000 µM ([4]; Human betaherpesvirus 5, MRC5, 120 h, 2.0 mM, 5 days HEF growth): 0.88%
activity at 500 µM ([4]; Human betaherpesvirus 5, MRC5, 144 h, 0.5 mM, 6 days HEF growth): 3.5%
activity at 2000 µM ([4]; Human betaherpesvirus 5, MRC5, 144 h, 2.0 mM, 6 days HEF growth): 0.15%
antiviral effect on HSV type I strain (in words) (HSV type I): only minor effect
